Laboratory results taken from paper PMC10287695, “Non-covalent inhibitors of thioredoxin glutathione reductase with schistosomicidal activity in vivo” (Nature Communications, 2023).
Several values for one entry are separate records, joined by “and”; a condition that tells them apart may be missing. Equal entries are not always repeated. Where two headings read alike, the source gives them in different places. Marks after values point to notes of the source that are not given here.

Key:
TGR = biological target: T1, TGR (Schistosoma mansoni, UniProt Q962Y6); test: Reversibility by jump dilution; format: biochemical; conditions: for % Activity (ID list), D0 / % Inhibition (ID list), D0: D0: diluted 1:100, activity determined immediately; for % Activity (ID list), D0 / % Activity (ID list), D60 / % Inhibition (ID list), D60 / % Activity (ID list) / % Inhibition (ID list) / % Inhibition (ID list), D0: list for plotting; for % Activity (ID list), D60 / % Inhibition (ID list), D60: D60: diluted 1:100, activity determined after 60 min; for Inhibitor (rate), 0 min / % Activity, 0 min: [0, D0]: 15 min preincubation inhibitor + TGR + NADPH, diluted 1:100, then activity determined immediately; for Inhibitor (rate), 0 min / Inhibitor (rate), 60 min / Inhibitor (rate), -15: raw rate; for % Activity, 0 min / % Activity, 60 min / % Activity, -15: relative to DMSO; for Inhibitor (rate), 60 min / % Activity, 60 min: [60, D60]: 15 min preincubation inhibitor + TGR + NADPH, diluted 1:100, then activity determined after 60 min; for Inhibitor (rate), -15 / % Activity, -15: [-15]: 15 min preincubation inhibitor + TGR + NADPH, then activity determined, replicates; for % Activity (ID list) / % Inhibition (ID list): before dilution (-15)
T1 construct: made in house
T1 sequence (Q962Y6 1-598): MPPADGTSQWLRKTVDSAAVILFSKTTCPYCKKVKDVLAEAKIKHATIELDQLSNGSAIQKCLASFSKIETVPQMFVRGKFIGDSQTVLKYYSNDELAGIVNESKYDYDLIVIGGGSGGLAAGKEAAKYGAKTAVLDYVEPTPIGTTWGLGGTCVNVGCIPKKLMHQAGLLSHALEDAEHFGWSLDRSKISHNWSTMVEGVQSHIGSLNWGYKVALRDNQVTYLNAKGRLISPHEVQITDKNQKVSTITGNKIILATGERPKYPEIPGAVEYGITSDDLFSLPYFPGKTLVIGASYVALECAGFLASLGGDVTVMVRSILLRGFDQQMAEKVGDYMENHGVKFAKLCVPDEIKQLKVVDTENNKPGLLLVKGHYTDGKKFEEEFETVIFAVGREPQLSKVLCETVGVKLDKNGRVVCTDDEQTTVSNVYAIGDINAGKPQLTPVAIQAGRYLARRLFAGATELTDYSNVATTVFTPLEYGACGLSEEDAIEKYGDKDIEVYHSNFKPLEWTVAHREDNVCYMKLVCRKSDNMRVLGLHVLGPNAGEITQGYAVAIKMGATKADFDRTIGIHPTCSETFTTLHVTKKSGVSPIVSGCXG
Description: A reaction of 370 nM TGR, 100 µM NADPH, and 250 µM inhibitor was incubated for 15 min at room temperature. A 100x dilution of the reaction was made and the activity was determined immediately and after 60 min.

PfTrxR = biological target: T2, PfTrxR (Plasmodium falciparum, UniProt Q25861); test: P. falciparum TrxR enzyme inhibition; format: biochemical
T2 construct: 6-His (N); made in house; host or cells: E. coli BL21 (DE3)
T2 sequence (Q25861 1-541): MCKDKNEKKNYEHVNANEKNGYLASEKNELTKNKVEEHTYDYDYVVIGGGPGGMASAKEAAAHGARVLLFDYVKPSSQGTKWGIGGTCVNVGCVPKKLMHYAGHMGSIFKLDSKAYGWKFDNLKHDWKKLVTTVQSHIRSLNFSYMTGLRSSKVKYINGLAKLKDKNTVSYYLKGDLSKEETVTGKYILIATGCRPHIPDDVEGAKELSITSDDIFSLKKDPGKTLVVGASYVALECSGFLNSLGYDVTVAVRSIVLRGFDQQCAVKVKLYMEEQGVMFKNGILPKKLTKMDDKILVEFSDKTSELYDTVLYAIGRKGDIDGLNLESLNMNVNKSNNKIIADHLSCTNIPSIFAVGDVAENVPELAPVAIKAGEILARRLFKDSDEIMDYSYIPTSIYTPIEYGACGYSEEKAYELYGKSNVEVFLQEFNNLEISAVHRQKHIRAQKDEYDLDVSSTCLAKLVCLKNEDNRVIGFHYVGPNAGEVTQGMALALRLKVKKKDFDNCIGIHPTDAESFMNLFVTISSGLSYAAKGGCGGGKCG
Description: Recombinant TGR, human TrxR1, B. malayi (Bm)TrxR and human GR proteins were expressed and purified as described[20],[69],[79]. The codon optimized sequence for P. falciparum (PfTrxR, https://www.ncbi.nlm.nih.gov/protein/CAA60574.1/) with an N-terminal 6-His tag was synthesized and inserted into pET15b (GenScript) and expressed in BL21 (DE3) cells and purified as described for human GR[20]. TGR and TrxR enzyme inhibition assays were performed in triplicate at 25 °C as described[20] in 0.1 M potassium phosphate (pH 7.4), 10 mM EDTA, 100 µM NADPH and 0.01% Tween-20. TGR, human TrxR1 and BmTrxR (all at 4 nM) and PfTrxR (50 nM) were preincubated with the compounds for 15 min. The reaction was started with addition of an equal volume of DTNB (6 mM) and NADPH (100 µM) and the increase in A412 during the first 3 min was recorded. […] The reaction was preincubated for 15 min. Activity was initiated with the addition of 1 mM GSSG and 100 μM NADPH and initial rates of NADPH oxidation were monitored at 340 nm. The reactions were done in triplicate. The IC50 was calculated in GraphPad Prism.

[1] = system: S. mansoni juvenile worms (21 days); test: Schistosomicidal activity ex vivo, juvenile worms (21 days); format: cell-based; conditions: for viability at 5 µM / viability at 15 µM / viability at 30 µM: Schistosoma mansoni, 23 day S. mansoni worms, 48 HR; for viability at 5 µM: Conc. 5 µM; for viability at 15 µM: Conc. 15 µM; for viability at 30 µM: Conc. 30 µM; for LD50 ex vivo S. mansoni 21 days: juvenile worms, 48 h exposure
Description: Three-week old, female Swiss-Webster mice obtained from the Charles River were housed in the Comparative Research Center of Rush University Medical Center. Mice were infected by percutaneous tail exposure to about 200 S. mansoni or 50 S. japonicum cercaria for adult worms and about 1000 cercaria for juvenile S. mansoni worms through natural transdermal penetration of the cercariae for 1 h[81].
DMSO formulated compounds were diluted with phenol red free M199 medium or RPMI medium for NTS or juvenile and adult worms, respectively, at <1% DMSO final concentrations. NTS, juvenile and adult worms from overnight cultures were tested against compounds in triplicate. Controls were treated with DMSO alone or 5 µM AF as a positive control in appropriate medium. […] Schistosome viabilities in the presence of the compounds were assessed using this formula: % Viability = Averages of Test / Averages of DMSO Control x 100.

BmTrxR = BmTrxR (Brugia malayi, UniProt A0A1I9G0T9); test: B. malayi TrxR enzyme inhibition; format: biochemical
Chain of BmTrxR (A0A1I9G0T9 entry or part of it, added parts left off): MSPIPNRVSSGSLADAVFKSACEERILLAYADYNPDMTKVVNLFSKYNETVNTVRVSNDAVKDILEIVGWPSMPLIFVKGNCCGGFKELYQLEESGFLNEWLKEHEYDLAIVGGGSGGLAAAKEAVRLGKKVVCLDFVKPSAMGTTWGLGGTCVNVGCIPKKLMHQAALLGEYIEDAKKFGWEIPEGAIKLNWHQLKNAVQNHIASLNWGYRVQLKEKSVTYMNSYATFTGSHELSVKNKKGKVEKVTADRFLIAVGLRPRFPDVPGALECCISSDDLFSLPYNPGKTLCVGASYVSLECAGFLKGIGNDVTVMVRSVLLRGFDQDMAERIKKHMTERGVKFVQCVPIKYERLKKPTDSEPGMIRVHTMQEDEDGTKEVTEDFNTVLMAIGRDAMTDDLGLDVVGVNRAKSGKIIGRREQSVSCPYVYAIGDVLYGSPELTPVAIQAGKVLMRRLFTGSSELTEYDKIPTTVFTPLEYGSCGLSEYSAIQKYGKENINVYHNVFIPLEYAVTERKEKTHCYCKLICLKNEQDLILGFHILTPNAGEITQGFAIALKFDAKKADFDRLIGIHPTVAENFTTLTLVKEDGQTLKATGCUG
Description: Recombinant TGR, human TrxR1, B. malayi (Bm)TrxR and human GR proteins were expressed and purified as described[20],[69],[79]. The codon optimized sequence for P. falciparum (PfTrxR, https://www.ncbi.nlm.nih.gov/protein/CAA60574.1/) with an N-terminal 6-His tag was synthesized and inserted into pET15b (GenScript) and expressed in BL21 (DE3) cells and purified as described for human GR[20]. […] The reaction was started with addition of an equal volume of DTNB (6 mM) and NADPH (100 µM) and the increase in A412 during the first 3 min was recorded. […] Activity was initiated with the addition of 1 mM GSSG and 100 μM NADPH and initial rates of NADPH oxidation were monitored at 340 nm. The reactions were done in triplicate. The IC50 was calculated in GraphPad Prism.

[2] = read-out: PfTrxR % inhibition at 50 µM
[3] = 50 µM, the highest concentration tested
[4] = BmTrxR, 10 µM compound, mean of 3 replicates, read-out: % inhibition
[5] = BmTrxR, 25 µM compound, mean of 3 replicates, read-out: % inhibition
[6] = BmTrxR, 50 µM compound, mean of 3 replicates, read-out: % inhibition

Structure (SMILES)	% Activity (ID list), D0 (TGR)	% Activity (ID list), D60 (TGR)	% Inhibition (ID list), D60 (TGR)	Inhibitor (rate), 0 min (TGR)	% Activity, 0 min (TGR)	Inhibitor (rate), 60 min (TGR)	% Activity, 60 min (TGR)	Inhibitor (rate), -15 (TGR)	% Activity, -15 (TGR)	% Activity (ID list) (TGR)	% Inhibition (ID list) (TGR)	inhibition at 10 µM (PfTrxR) [%]	inhibition at 25 µM (PfTrxR) [%]	viability at 5 µM [1] [%]	viability at 15 µM [1] [%]	viability at 30 µM [1] [%]	LD50 ex vivo S. mansoni 21 days [1]	inhibition at 10 µM (BmTrxR; [4]) [%]	inhibition at 25 µM (BmTrxR; [5]) [%]	inhibition at 50 µM (BmTrxR; [6]) [%]	also measured
Cc1oc(C2CCCCC2)nc1CN[C@@H]1C[C@@H]2C[C@H]([C@H]1C)C2(C)C [Compound 4]	102.5% and 102.9% and 117.3%	106.3%	-15.2% and -8.7% and -6.3%	0.04729 and 0.04838 and 0.05087	102.47% and 102.936% and 117.347%	0.04596 and 0.04643 and 0.04838	106.315% and 104.173% and 103.664%	0.01214 and 0.0123 and 0.01219	35.2293% and 34.0532% and 34.3671%	35.2% and 34.1% and 34.4%	64.8% and 65.9% and 65.6%	1.8	4.57	65.7	45.3	27.7	14.2 ± 2.13 µM	-0.192	0.661	0.575	inhibition at 50 µM (PfTrxR): 18.1%; inhibition at 50 µM (PfTrxR; [2]): 18%; BmTrxR % inhibition at 50 µM (BmTrxR; [3]): n.i.
Cc1oc(-c2ccccc2)nc1CN[C@@H]1C[C@@H]2C[C@H]([C@H]1C)C2(C)C [Compound 3]	107.0% and 101.9% and 120.0%	112.2%	-12.2% and -2.4% and -4.0%	0.04937 and 0.04787 and 0.05217	106.977% and 101.851% and 120.346%	0.04847 and 0.05055 and 0.05088	112.121% and 113.417% and 109.021%	0.01322 and 0.01449	38.3633% and 40.1163%	38.4% and 40.1%	61.6367% and 59.8837% and 55%			66	43.1	32.1	10.9 ± 0.39 µM				inhibition at 50 µM (PfTrxR; [2]): 12%; inhibition at 10 µM (BmTrxR): -15.1%; inhibition at 25 µM (BmTrxR): -10.6%; inhibition at 50 µM (BmTrxR): -20.9%; BmTrxR % inhibition at 50 µM (BmTrxR; [3]): n.i.
C[C@@H]1[C@H]2C[C@@H](C[C@H]1NCc1nc3ccccc3n1C1CCCCCC1)C2(C)C [Compound 8]	90.8% and 93.4% and 92.5%	93.9% and 90.9% and 93.8%	6.1% and 9.1% and 6.2%	0.05404 and 0.05709 and 0.05725	90.8083% and 93.3911% and 92.5327%	0.05102 and 0.05246 and 0.05311	93.9422% and 90.9343% and 93.8339%	0.005946 and 0.01664 and 0.01823	12.3643% and 34.0704% and 37.3107%		77.7% and 75.9% and 68.7%	-0.482	-0.643	83.5	66	57.2	>30^a µM	17.7	43.3	68.2	% Inhibition (ID list), D0 (TGR): 9.2% and 6.6% and 7.5%; inhibition at 50 µM (PfTrxR): -0.523%; inhibition at 50 µM (BmTrxR; read-out: BmTrxR % inhibition at 50 µM, 50 µM, the highest concentration tested): 67.7%
Cc1oc(-c2ccc3c(c2)OCO3)nc1CN[C@@H]1C[C@@H]2C[C@H]([C@H]1C)C2(C)C [Compound 1]			-11.2% and -8.3% and -14.2%	0.04476 and 0.04528 and 0.04727	96.9881% and 96.3404% and 109.043%	0.04331 and 0.04649 and 0.04721	100.185% and 104.308% and 101.157%	0.02911 and 0.02756 and 0.02942	84.4748% and 76.3012% and 82.9433%	84.5% and 76.3% and 82.9%	15.5% and 23.7% and 17.1%			69	54.9	46.4	26.3 ± 0.48 µM	22.5	40.6	77.5	% Inhibition (ID list), D0 (TGR): -3.0% and -6.3% and -11.0%; PfTrxR % inhibition at 50 µM (PfTrxR; [3]): n.i.; inhibition at 10 µM (PfTrxR; PfTrxR, 10 µM compound, mean of 3 replicates, read-out: % inhibition): -2.06%; inhibition at 25 µM (PfTrxR; PfTrxR, 25 µM compound, mean of 3 replicates, read-out: % inhibition): -2.16%; inhibition at 50 µM (PfTrxR; PfTrxR, 50 µM compound, mean of 3 replicates, read-out: % inhibition): -1.29%; IC50 (BmTrxR): 37 ± 3.04 µM
